PubChem BioAssay AID248 (DTP/NCI, 2004)
Where “and” joins values, the source holds several entries; their conditions need not be identical. Equal values may be shown once. Inconclusive results and toxic doses are left out. Rule as the data show it: active = T/C of 150% or more; inactive = T/C below 125%.

Tested on: L1210 leukemia ip in BDF1 mice, survival T/C
Test: NCI In Vivo Anticancer Drug Screen. Data for tumor model L1210 Leukemia (intraperitoneal) in B6D2F1 (BDF1) mice
Details: endpoint: mean survival time, higher = longer survival
How it was run: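 Value reflects the ratio of survival in compound-treated mice to survival in vehicle-treated controls, with both groups carrying the same transplanted tumor.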

[1] = dose: 100.0 mg/kg/injection, schedule: Q01DX001 (ip), vehicle: Klucel (hydroxypropylcellulose) (HPC)
[2] = dose: 200.0 mg/kg/injection, schedule: Q01DX001 (ip), vehicle: Klucel (hydroxypropylcellulose) (HPC)
[3] = dose: 100.0 mg/kg/injection, schedule: Q01DX009 (ip), vehicle: other
[4] = dose: 100.0 mg/kg/injection, schedule: Q04DX003 (ip), vehicle: alcohol
[5] = dose: 200.0 mg/kg/injection, schedule: Q04DX003 (ip), vehicle: alcohol
[6] = dose: 400.0 mg/kg/injection, schedule: Q04DX003 (ip), vehicle: alcohol
[7] = dose: 100.0 mg/kg/injection, schedule: Q01DX009 (ip), vehicle: Klucel (hydroxypropylcellulose) (HPC)
[8] = dose: 200.0 mg/kg/injection, schedule: Q01DX009 (ip), vehicle: Klucel (hydroxypropylcellulose) (HPC)
[9] = dose: 400.0 mg/kg/injection, schedule: Q01DX009 (ip), vehicle: Klucel (hydroxypropylcellulose) (HPC)
[10] = dose: 50.0 mg/kg/injection, schedule: Q01DX009 (ip), vehicle: saline with Tween-80
[11] = dose: 100.0 mg/kg/injection, schedule: Q01DX009 (ip), vehicle: saline with Tween-80
[12] = dose: 100.0 mg/kg/injection, schedule: Q04DX003 (ip), vehicle: Klucel (hydroxypropylcellulose) (HPC)
[13] = dose: 200.0 mg/kg/injection, schedule: Q04DX003 (ip), vehicle: Klucel (hydroxypropylcellulose) (HPC)
[14] = dose: 100.0 mg/kg/injection, schedule: Q04DX003 (ip), vehicle: saline with Tween-80
[15] = dose: 200.0 mg/kg/injection, schedule: Q04DX003 (ip), vehicle: saline with Tween-80
[16] = dose: 400.0 mg/kg/injection, schedule: Q04DX003 (ip), vehicle: saline with Tween-80
[17] = dose: 400.0 mg/kg/injection, schedule: Q04DX003 (ip), vehicle: Klucel (hydroxypropylcellulose) (HPC)
[18] = dose: 100.0 mg/kg/injection, schedule: Q01DX001 (ip), vehicle: saline
[19] = dose: 200.0 mg/kg/injection, schedule: Q01DX001 (ip), vehicle: saline
[20] = dose: 400.0 mg/kg/injection, schedule: Q01DX001 (ip), vehicle: saline

Measured: T/C

NC(N)=N/N=C(\c1ccc(Cl)cc1)C1CC1
inactive: dose: 15.0 mg/kg/injection, schedule: Q01DX Z (ip), vehicle: methylcellulose (MC) 101 % of control | dose: 30.0 mg/kg/injection, schedule: Q01DX Z (ip), vehicle: methylcellulose (MC) 95 % of control | dose: 30.0 mg/kg/injection, schedule: Q01DX Z (oral), vehicle: methylcellulose (MC) 92 % of control | dose: 60.0 mg/kg/injection, schedule: Q01DX Z (ip), vehicle: methylcellulose (MC) 98 % of control | dose: 60.0 mg/kg/injection, schedule: Q01DX Z (oral), vehicle: methylcellulose (MC) 93 % of control | dose: 240.0 mg/kg/injection, schedule: Q01DX Z (oral), vehicle: methylcellulose (MC) 95 % of control | dose: 375.0 mg/kg/injection, schedule: Q01DX Z (oral), vehicle: methylcellulose (MC) 92 % of control | dose: 500.0 mg/kg/injection, schedule: Q01DX Z (oral), vehicle: methylcellulose (MC) 88 % of control

O=C(Nc1ccccc1)C(=O)c1ccccc1
inactive: [1] 98 % of control | [2] 93 % of control | dose: 400.0 mg/kg/injection, schedule: Q01DX001 (ip), vehicle: Klucel (hydroxypropylcellulose) (HPC) 106 % of control

CCOC(=O)C1(O)CSC(O)(C(=O)OCC)CS1 (stereo unspecified)
inactive: dose: 100.0 mg/kg/injection, schedule: Q01DX001 (ip), vehicle: other 101 % of control | dose: 200.0 mg/kg/injection, schedule: Q01DX001 (ip), vehicle: other 97 % of control | dose: 400.0 mg/kg/injection, schedule: Q01DX001 (ip), vehicle: other 92 % of control

Cc1ccc([N+](=O)[O-])cc1P(=O)(O)c1cc([N+](=O)[O-])ccc1C
inactive: dose: 100.0 mg/kg/injection, schedule: Q01DX001 (ip), vehicle: acetone 94 % of control | dose: 100.0 mg/kg/injection, schedule: Q04DX003 (ip), vehicle: acetone 103 % of control | dose: 200.0 mg/kg/injection, schedule: Q01DX001 (ip), vehicle: acetone 94 % of control | dose: 200.0 mg/kg/injection, schedule: Q04DX003 (ip), vehicle: acetone 92 % of control | dose: 400.0 mg/kg/injection, schedule: Q01DX001 (ip), vehicle: acetone 93 % of control | dose: 400.0 mg/kg/injection, schedule: Q04DX003 (ip), vehicle: acetone 100 % of control

NC(=O)c1cc(O)c(Br)c(O)c1
inactive: [3] 86 % of control | dose: 100.0 mg/kg/injection, schedule: Q04DX003 (ip), vehicle: saline 98 % of control | dose: 200.0 mg/kg/injection, schedule: Q01DX009 (ip), vehicle: other 100 % of control | dose: 200.0 mg/kg/injection, schedule: Q04DX003 (ip), vehicle: saline 109 % of control | dose: 400.0 mg/kg/injection, schedule: Q01DX009 (ip), vehicle: other 93 % of control | dose: 400.0 mg/kg/injection, schedule: Q04DX003 (ip), vehicle: saline 98 % of control

CC1(C)OC2C(C=O)OC(n3cnc4c(N)ncnc43)C2O1 (stereo unspecified)
inactive: [4] 102 % of control | [5] 102 % of control | [6] 96 % of control

Cc1ccc(Cl)c(NC(=O)Nc2ccccc2F)c1
inactive: [7] 97 % of control | [8] 100 % of control | [9] 103 % of control

O=C(O)CCCCc1ccc(CCCCC(=O)O)cc1
inactive: [10] 96 % of control | [11] 106 % of control | [12] 97 % of control | [13] 104 % of control

COC1OC(COS(C)(=O)=O)C(OS(C)(=O)=O)C(OS(C)(=O)=O)C1OS(C)(=O)=O (stereo unspecified)
inactive: [14] 91 % of control and 100 % of control | [15] 93 % of control and 91 % of control | [16] 88 % of control and 94 % of control

COc1cc(N(C)C)c(OC)cc1C=O
inactive: [7] 103 % of control | [12] 97 % of control | [8] 105 % of control | [13] 95 % of control | [17] 95 % of control

O=C(/C=C/c1ccc2c(c1)OCO2)c1ccc([N+](=O)[O-])cc1
inactive: [4] 93 % of control | [5] 90 % of control | [6] 93 % of control

c1cc[n+](CCNCC[n+]2ccccc2)cc1
inactive: dose: 75.0 mg/kg/injection, schedule: Q01DX001 (ip), vehicle: saline 93 % of control | dose: 150.0 mg/kg/injection, schedule: Q01DX001 (ip), vehicle: saline 94 % of control

CC1(C)CCc2c(cc(OCc3ccccc3)c(-c3c(OCc4ccccc4)cc4c(c3O)CCC(C)(C)O4)c2O)O1
inactive: [12] 94 % of control | [13] 93 % of control | [17] 94 % of control

Cc1cc(N(CCCl)CCCl)ccc1C=Nc1ccc(-c2csc(-c3ccccc3)n2)cc1
inactive: dose: 50.0 mg/kg/injection, schedule: Q01DX001 (ip), vehicle: carboxymethylcellulose (CMC) 103 % of control | dose: 100.0 mg/kg/injection, schedule: Q01DX001 (ip), vehicle: carboxymethylcellulose (CMC) 94 % of control | dose: 200.0 mg/kg/injection, schedule: Q01DX001 (ip), vehicle: carboxymethylcellulose (CMC) 97 % of control | dose: 400.0 mg/kg/injection, schedule: Q01DX001 (ip), vehicle: carboxymethylcellulose (CMC) 100 % of control

O=C(c1ccccc1)c1cccc([N+](=O)[O-])c1
inactive: [14] 98 % of control | [15] 93 % of control | [16] 89 % of control

CC(C1CCC/C(=N\NC(N)=O)C1)[N+](=O)[O-] (stereo unspecified)
inactive: dose: 25.0 mg/kg/injection, schedule: Q01DX009 (ip), vehicle: saline with Tween-80 95 % of control | [10] 104 % of control | [11] 89 % of control | [14] 90 % of control | [15] 98 % of control

CN(C)C1(C(=O)O)c2ccccc2-c2ccccc21
inactive: dose: 50.0 mg/kg/injection, schedule: Q01DX001 (ip), vehicle: saline 100 % of control | [18] 100 % of control | [19] 97 % of control

ClC1(Cl)C2CC3C4C=CC(C4)C3C21 (stereo unspecified)
inactive: [1] 108 % of control | [2] 100 % of control

Cc1cc(=O)[nH]c(NCC(=O)O)n1
inactive: dose: 50.0 mg/kg/injection, schedule: Q04DX002 (ip), vehicle: saline 101 % of control | dose: 100.0 mg/kg/injection, schedule: Q04DX002 (ip), vehicle: saline 101 % of control | dose: 200.0 mg/kg/injection, schedule: Q04DX002 (ip), vehicle: saline 101 % of control

CCC1([N+](=O)[O-])COP(=O)(OC(=O)c2ccc([N+](=O)[O-])cc2)OC1 (stereo unspecified)
inactive: [18] 91 % of control | [19] 91 % of control | [20] 92 % of control

O=C(Nc1ccccc1F)NC(CO)(CO)CO
inactive: [7] 97 % of control | [8] 98 % of control | [9] 95 % of control

Cc1cc(=O)[nH]c(=O)n1C1OC(CO)C(O)C1O (stereo unspecified)
inactive: [18] 108 % of control | [19] 102 % of control | [20] 98 % of control

COC(=O)c1cc(C)n(C)c(=O)c1CNS(=O)(=O)c1ccc(C)cc1
inactive: [11] 99 % of control | [14] 97 % of control | dose: 200.0 mg/kg/injection, schedule: Q01DX009 (ip), vehicle: saline with Tween-80 100 % of control | [15] 105 % of control | dose: 400.0 mg/kg/injection, schedule: Q01DX009 (ip), vehicle: saline with Tween-80 99 % of control | [16] 108 % of control

COC(=O)C12C3OC(C4OC43)C1(C(=O)OC)C1OC2C2OC21 (stereo unspecified)
inactive: dose: 87.5 mg/kg/injection, schedule: Q01DX009 (ip), vehicle: Klucel (hydroxypropylcellulose) (HPC) 100 % of control | dose: 175.0 mg/kg/injection, schedule: Q01DX009 (ip), vehicle: Klucel (hydroxypropylcellulose) (HPC) 101 % of control | dose: 350.0 mg/kg/injection, schedule: Q01DX009 (ip), vehicle: Klucel (hydroxypropylcellulose) (HPC) 101 % of control

O=C1OC(=O)c2ccc(SCC(O)CCl)c3cccc1c23 (stereo unspecified)
inactive: dose: 25.0 mg/kg/injection, schedule: Q01DX009 (ip), vehicle: other 98 % of control | dose: 50.0 mg/kg/injection, schedule: Q01DX009 (ip), vehicle: other 93 % of control | [3] 93 % of control and 109 % of control

COc1ccc(Cl)cc1NC(=O)c1cccc([N+](=O)[O-])c1
inactive: [7] 98 % of control | [8] 98 % of control | [9] 102 % of control
